Results: patent US4035394A, “5-Phenyl-2-furanyl-oxo or-hydroxy alkanoic acids and ethyl esters as gastric acid antisecretory agents” (Morton-Norwich Products, Inc., priority 1976, dated 1977)

Test system: gastric acid secretion
Experiment: modified standard pylorus-ligated secretory testing procedure in the rat
Assay type: in vivo, Sprague-Dawley rat
Conditions: 300 mg/kg p.o. suspension in 0.5% Methocel 1 hour prior to pylorus ligation, 4 hours after ligation; for % Inhibition Gastric Acid Output: titration to pH7, vs control; for % Inhibition Vol. of Gastric Secretion: vs control
Experimental: Such effect is evidenced using a modified standard pylorus-ligated secretory testing procedure in the rat. Sprague-Dawley rats, weighing 180-210 g and previously fasted for 24 hours, were used. All compounds were given perorally as suspensions in 0.5% Methocel 1 hour prior to pylorus ligation. Under light ether anesthesia, the rat stomach was ligated at the pylorus region. Four hours after ligation the conscious rat was sacrificed by a chloroform overdose. The stomach was carefully excised and its content drained into a centrifuge tube. Samples were centrifuged to separate secretions from debris. Gastric fluid volume reading and determination of sample contamination, based on debris and sample color, was made. Titration was performed on a sample aliquot of 1 ml diluted to a volume of 5 ml using distilled water. The titrant used was 0.1N NaOH. Total gastric acid output in the stomach was determined by titration to pH7. A dose of 300 mg/kg p.o. of a compound was administered to a group of rats and its effect on the volume of gastric secretion and acid output compared to a control group receiving 0.5% Methocel p.o. The activity of each compound based on the degree of inhibition of gastric acid output is set forth in Table I.

Compound	% Inhibition Gastric Acid Output [%]	% Inhibition Vol. of Gastric Secretion [%]
O=C(O)CC(O)c1ccc(-c2ccc(Cl)cc2Cl)o1 (stereo not drawn) [V, 3-[5-(2,4-Dichlorophenyl)-2-furanyl]-3-hydroxypropanoic Acid]	45.4	3.4
CCOC(=O)CC(O)c1ccc(-c2ccc([N+](=O)[O-])cc2)o1 (stereo not drawn) [Example I, Ethyl 3-[5-(4-Nitrophenyl)-2-furanyl]-3-hydroxypropanoate]	43.1	33.17
CCOC(=O)CC(=O)c1ccc(-c2ccc(Cl)cc2)o1 [VI, B]	50.0	19.8
O=C(O)CCC(=O)c1ccc(-c2ccc(Cl)cc2)o1 [IV, B]	57.1	40.7
O=C(O)CCC(O)c1ccc(-c2ccc(Cl)cc2)o1 (stereo not drawn) [II, 4-[5-(4-Chlorophenyl)-2-furanyl]-4-hydroxybutanoic Acid]	72.3	47.3
O=C(O)CC(O)c1ccc(-c2ccccc2Cl)o1 (stereo not drawn) [III, 3-[5-(2-Chlorophenyl)-2-furanyl]-3-hydroxypropanoic Acid]	95.0	33.5
